According to patent publication US20200079758A1, “[4-(PHENYLSULFONYL)PIPERAZIN-1-YL](1H-1,2,3-TRIAZOL-4-YL)METHANONES” (priority 2016, published 2020):

Molecular target: T1, recombinant human AKR1C3 (Homo sapiens, UniProt P42330)
T1 construct: GST (cleaved yes); made in house; host or cells: E. coli
T1 sequence (P42330 1-323): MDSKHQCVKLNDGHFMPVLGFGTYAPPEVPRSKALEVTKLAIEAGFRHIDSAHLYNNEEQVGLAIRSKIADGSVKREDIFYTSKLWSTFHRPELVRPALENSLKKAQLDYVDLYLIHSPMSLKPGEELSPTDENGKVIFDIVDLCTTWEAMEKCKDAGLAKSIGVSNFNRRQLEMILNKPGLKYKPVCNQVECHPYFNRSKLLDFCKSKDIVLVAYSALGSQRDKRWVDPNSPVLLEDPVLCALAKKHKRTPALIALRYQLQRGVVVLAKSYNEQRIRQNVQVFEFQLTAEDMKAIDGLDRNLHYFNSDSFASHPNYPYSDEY
Test: AKR1C3-inhibitory activity assay (generation of Coumberol from Coumberone)
Assay type: biochemical
Settings: Coumberone 0.3 μM, NADPH 10 μM, 22° C., typically 90 min, average or median values
Method: The AKR1C3-inhibitory activity of the substances of the present invention was measured in the AKR1C3 assay described in the paragraphs below.
Essentially, the enzyme activity is measured by quantification of the generation of Coumberol from Coumberone (Halim et al. J. AM. CHEM. SOC. 2008, 130:14123-14128 and Yee et al. Proc. Natl. Acad. Sci. USA 2006, 103:13304-13309). In this test, the increase of the highly fluorescent Coumberol by NADPH- (nicotinamide adenine dinucleotide phosphate)-dependent reduction of the non-fluorescent Coumberone by AKR1C3 was determined.
The enzyme used was recombinant human AKR1C3 (Aldo-keto reductase family 1 member C3; GenBank Accession No. NM_003739). This was expressed in E. coli as GST (glutathione S transferase) fusion protein and purified by glutathione Sepharose affinity chromatography. The GST was removed by digestion with thrombin and subsequent size exclusion chromatography (Dufort, I., Rheault, P., Huang, X F., Soucy, P., and Luu-The, V., Endocrinology 140, 568-574 (1999)).
For the assay, 50 nl of a 100-fold concentrated solution of the test substance in DMSO were pipetted into a black low-volume 384-well microtiter plate (Greiner Bio-One, Frickenhausen, Germany), 2.5 μl of a solution of AKR1C3 in assay buffer [50 mM potassium phosphate buffer pH 7, 1 mM DTT, 0.0022% (w/v) Pluronic F-127, 0.01% BSA (w/v) and protease inhibitor cocktail (Complete, EDTA-free Protease Inhibitor Cocktail from Roche)] were added and the mixture was incubated for 15 min to allow pre-binding of the substances to the enzyme prior to the enzyme reaction. The enzyme reaction was then started by addition of 2.5 μl of a solution of NADPH (20 μM→final concentration in 5 μl of assay volume is 10 μM) and Coumberone (0.6 μM→final concentration in 5 μl of assay volume is 0.3 μM) in assay buffer, and the resulting mixture was incubated at 22° C. for the reaction time of typically 90 min. The concentration of the AKR1C3 and the reaction time was adapted to the respective activity of the enzyme preparation and adjusted such that the assay was carried out in the linear range. Typical AKR1C3 concentrations were in the region of 1 nM. The reaction was stopped by addition of 2.5 μl of a stop solution consisting of 3 μM EM-1404 as inhibitor (U.S. Pat. No. 6,541,463) in 50 mM HEPES pH7.5 (3 μM EM-1404→final concentration in 7.5 μl of assay volume is 1 μM). The fluorescence of the Coumberole was then measured at 520 nm (excitation at 380 nm) using a suitable measuring instrument (Pherastar from BMG Labtechnologies). The intensity of the fluorescence was used as a measure of the amount of Coumberole formed and thus of the enzyme activity of AKR1C3. The data were normalized (enzyme reaction without inhibitor=0% inhibition; all other assay components, but no enzyme=100% inhibition).

Compound | IC50
C[C@@H]1CN(S(=O)(=O)c2cccc(Cl)c2F)C[C@H](C)N1C(=O)c1c[nH]nn1 [Example 55, {(2R,6S)-4-[(3-chloro-2-fluorophenyl)sulfonyl]-2,6-dimethylpiperazin-1-yl}(1H-1,2,3-triazol-4-yl)methanone] | 10 nM
C[C@@H]1CN(S(=O)(=O)c2ccc(F)c(Cl)c2)C[C@H](C)N1C(=O)c1cnn[nH]1 [Example 100, {(2R,6S)-4-[(3-chloro-4-fluorophenyl)sulfonyl]-2,6-dimethylpiperazin-1-yl}(1H-1,2,3-triazol-5-yl)methanone] | 20 nM
COc1ccc(S(=O)(=O)N2C[C@H](C)N(C(=O)c3cnn[nH]3)C[C@H]2C)cc1 [Example 67, {(2S,5R)-4-[(4-methoxyphenyl)sulfonyl]-2,5-dimethylpiperazin-1-yl}(1H-1,2,3-triazol-5-yl)methanone] | 7 nM
C[C@@H]1CN(C(=O)c2cnn[nH]2)[C@@H](C)CN1S(=O)(=O)c1cccc2cccnc12 [Example 68, [(2S,5R)-2,5-dimethyl-4-(quinolin-8-ylsulfonyl)piperazin-1-yl](1H-1,2,3-triazol-5-yl)methanone] | 7 nM
Cc1c(Cl)cccc1S(=O)(=O)N1C[C@H](C)N(C(=O)c2cnn[nH]2)C[C@H]1C [Example 77, {(2S,5R)-4-[(3-chloro-2-methylphenyl)sulfonyl]-2,5-dimethylpiperazin-1-yl}(1H-1,2,3-triazol-5-yl)methanone] | 2 nM
CC1(C)CN(C(=O)c2cnn[nH]2)CCN1S(=O)(=O)c1ccc(C#N)cc1 [Example 120, 4-{[2,2-dimethyl-4-(1H-1,2,3-triazol-5-ylcarbonyl)piperazin-1-yl]sulfonyl}benzonitrile] | 263 nM
C[C@@H]1CN(S(=O)(=O)c2cc(F)ccc2F)C[C@H](C)N1C(=O)c1c[nH]nn1 [Example 59, {(2R,6S)-4-[(2,5-difluorophenyl)sulfonyl]-2,6-dimethylpiperazin-1-yl}(1H-1,2,3-triazol-4-yl)methanone] | 4 nM
CC1(C)CN(C(=O)c2cnn[nH]2)CCN1S(=O)(=O)c1ccc(F)c(F)c1F [Example 126, {3,3-dimethyl-4-[(2,3,4-trifluorophenyl)sulfonyl]piperazin-1-yl}(1H-1,2,3-triazol-5-yl)methanone] | 46 nM
C[C@@H]1CN(S(=O)(=O)c2ccccc2-c2ccccc2)C[C@H](C)N1C(=O)c1cnn[nH]1 [Example 107, [(2R,6S)-4-(biphenyl-2-ylsulfonyl)-2,6-dimethylpiperazin-1-yl](1H-1,2,3-triazol-5-yl)methanone] | 245 nM
C[C@@H]1CN(S(=O)(=O)c2cccc(C(F)(F)F)c2)C[C@H](C)N1C(=O)c1c[nH]nn1 [Example 57, [(2R,6S)-2,6-dimethyl-4-{[3-(trifluoromethyl)phenyl]sulfonyl}piperazin-1-yl](1H-1,2,3-triazol-4-yl)methanone] | 10 nM
CC1(C)CN(C(=O)c2cnn[nH]2)CCN1S(=O)(=O)c1cccc2c1OCC2 [Example 135, [4-(2,3-dihydro-1-benzofuran-7-ylsulfonyl)-3,3-dimethylpiperazin-1-yl](1H-1,2,3-triazol-5-yl)methanone] | 4 nM
C[C@@H]1CN(C(=O)c2cnn[nH]2)[C@@H](C)CN1S(=O)(=O)c1ccccc1S(C)(=O)=O [Example 84, [(2S,5R)-2,5-dimethyl-4-{[2-(methylsulfonyl)phenyl]sulfonyl}piperazin-1-yl](1H-1,2,3-triazol-5-yl)methanone] | 37 nM
CC1(C)CN(C(=O)c2cnn[nH]2)CCN1S(=O)(=O)c1ccc(F)cc1 [Example 30, {4-[(4-fluorophenyl)sulfonyl]-3,3-dimethylpiperazin-1-yl}(1H-1,2,3-triazol-5-yl)methanone] | 71 nM
C[C@@H]1CN(C(=O)c2cnn[nH]2)[C@@H](C)CN1S(=O)(=O)c1cc(F)cc(F)c1 [Example 3, {(2S,5R)-4-[(3,5-difluorophenyl)sulfonyl]-2,5-dimethylpiperazin-1-yl}(1H-1,2,3-triazol-5-yl)methanone] | 1 nM
C[C@@H]1CN(C(=O)c2cnn[nH]2)[C@@H](C)CN1S(=O)(=O)c1ccc(Br)cc1 [Example 61, {(2S,5R)-4-[(4-bromophenyl)sulfonyl]-2,5-dimethylpiperazin-1-yl}(1H-1,2,3-triazol-5-yl)methanone] | 4 nM
CC1(C)CN(C(=O)c2cnn[nH]2)CCN1S(=O)(=O)c1cc(F)ccc1Cl [Example 136, {4-[(2-chloro-5-fluorophenyl)sulfonyl]-3,3-dimethylpiperazin-1-yl}(1H-1,2,3-triazol-5-yl)methanone] | 5 nM
Cc1ccccc1S(=O)(=O)N1C[C@@H](C)N(C(=O)c2c[nH]nn2)[C@@H](C)C1 [Example 45, {(2R,6S)-2,6-dimethyl-4-[(2-methylphenyl)sulfonyl]piperazin-1-yl}(1H-1,2,3-triazol-4-yl)methanone] | 1 nM
Cc1cccc(S(=O)(=O)N2CCN(C(=O)c3cnn[nH]3)CC2(C)C)c1 [Example 33, {3,3-dimethyl-4-[(3-methylphenyl)sulfonyl]piperazin-1-yl}(1H-1,2,3-triazol-5-yl)methanone] | 10 nM
CC1(C)CN(C(=O)c2c[nH]nn2)CCN1S(=O)(=O)c1cccc(Cl)c1F [Example 24, {4-[(3-chloro-2-fluorophenyl)sulfonyl]-3,3-dimethylpiperazin-1-yl}(1H-1,2,3-triazol-4-yl)methanone] | 8 nM
C[C@@H]1CN(S(=O)(=O)c2cc(Cl)cc(Cl)c2)C[C@H](C)N1C(=O)c1c[nH]nn1 [Example 58, {(2R,6S)-4-[(3,5-dichlorophenyl)sulfonyl]-2,6-dimethylpiperazin-1-yl}(1H-1,2,3-triazol-4-yl)methanone] | 2 nM
Cc1ccccc1S(=O)(=O)N1CCN(C(=O)c2cnn[nH]2)CC1(C)C [Example 31, {3,3-dimethyl-4-[(2-methylphenyl)sulfonyl]piperazin-1-yl}(1H-1,2,3-triazol-5-yl)methanone] | 5 nM
COc1ccc(OC)c(S(=O)(=O)N2CCN(C(=O)c3cnn[nH]3)CC2(C)C)c1 [Example 115, {4-[(2,5-dimethoxyphenyl)sulfonyl]-3,3-dimethylpiperazin-1-yl}(1H-1,2,3-triazol-5-yl)methanone] | 208 nM
C[C@@H]1CN(C(=O)c2cnn[nH]2)[C@@H](C)CN1S(=O)(=O)Cc1ccccc1 [Example 64, [(2S,5R)-4-(benzylsulfonyl)-2,5-dimethylpiperazin-1-yl](1H-1,2,3-triazol-5-yl)methanone] | 114 nM
CC1(C)CN(C(=O)c2cnn[nH]2)CCN1S(=O)(=O)c1ccccc1[N+](=O)[O-] [Example 114, {3,3-dimethyl-4-[(2-nitrophenyl)sulfonyl]piperazin-1-yl}(1H-1,2,3-triazol-5-yl)methanone] | 10 nM
C[C@@H]1CN(C(=O)c2cnn[nH]2)[C@@H](C)CN1S(=O)(=O)c1ccc(C#N)cc1 [Example 15, 4-{[(2R,5S)-2,5-dimethyl-4-(1H-1,2,3-triazol-5-ylcarbonyl)piperazin-1-yl]sulfonyl}benzonitrile] | 55 nM
CC1(C)CN(C(=O)c2cnn[nH]2)CCN1S(=O)(=O)c1cccc(F)c1Cl [Example 137, {4-[(2-chloro-3-fluorophenyl)sulfonyl]-3,3-dimethylpiperazin-1-yl}(1H-1,2,3-triazol-5-yl)methanone] | 19 nM
COc1ccc(S(=O)(=O)N2C[C@@H](C)N(C(=O)c3cnn[nH]3)[C@@H](C)C2)cc1 [Example 97, {(2R,6S)-4-[(4-methoxyphenyl)sulfonyl]-2,6-dimethylpiperazin-1-yl}(1H-1,2,3-triazol-5-yl)methanone] | 151 nM
